Measurements taken from patent US10758534B2 (Vertex Pharmaceuticals Incorporated, priority 2014, dated 2020).

Biological target: T1, F508del (Homo sapiens, UniProt P13569, DEL508-508)
T1 construct: expressed in transfected cells
Test: Protocol 2: FRET membrane potential optical assay (VIPR), identification of correction compounds
Format: cell-based
Details: F508del CFTR modulator activity; compounds of Table 1; read-out: EC30
Outline: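 Single-addition HTS format: F508del-expressing NIH3T3 cells pre-incubated 16 hrs at 37° C. ± compound, with 27° C. culture as positive control. Channel activation by forskolin 10 μM and genistein 20 μM upon switch to gluconate bath, pH 7.4; read-out is FRET-based depolarization signal.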

T1 sequence (P13569 with tags, fused parts or gaps DEL508-508): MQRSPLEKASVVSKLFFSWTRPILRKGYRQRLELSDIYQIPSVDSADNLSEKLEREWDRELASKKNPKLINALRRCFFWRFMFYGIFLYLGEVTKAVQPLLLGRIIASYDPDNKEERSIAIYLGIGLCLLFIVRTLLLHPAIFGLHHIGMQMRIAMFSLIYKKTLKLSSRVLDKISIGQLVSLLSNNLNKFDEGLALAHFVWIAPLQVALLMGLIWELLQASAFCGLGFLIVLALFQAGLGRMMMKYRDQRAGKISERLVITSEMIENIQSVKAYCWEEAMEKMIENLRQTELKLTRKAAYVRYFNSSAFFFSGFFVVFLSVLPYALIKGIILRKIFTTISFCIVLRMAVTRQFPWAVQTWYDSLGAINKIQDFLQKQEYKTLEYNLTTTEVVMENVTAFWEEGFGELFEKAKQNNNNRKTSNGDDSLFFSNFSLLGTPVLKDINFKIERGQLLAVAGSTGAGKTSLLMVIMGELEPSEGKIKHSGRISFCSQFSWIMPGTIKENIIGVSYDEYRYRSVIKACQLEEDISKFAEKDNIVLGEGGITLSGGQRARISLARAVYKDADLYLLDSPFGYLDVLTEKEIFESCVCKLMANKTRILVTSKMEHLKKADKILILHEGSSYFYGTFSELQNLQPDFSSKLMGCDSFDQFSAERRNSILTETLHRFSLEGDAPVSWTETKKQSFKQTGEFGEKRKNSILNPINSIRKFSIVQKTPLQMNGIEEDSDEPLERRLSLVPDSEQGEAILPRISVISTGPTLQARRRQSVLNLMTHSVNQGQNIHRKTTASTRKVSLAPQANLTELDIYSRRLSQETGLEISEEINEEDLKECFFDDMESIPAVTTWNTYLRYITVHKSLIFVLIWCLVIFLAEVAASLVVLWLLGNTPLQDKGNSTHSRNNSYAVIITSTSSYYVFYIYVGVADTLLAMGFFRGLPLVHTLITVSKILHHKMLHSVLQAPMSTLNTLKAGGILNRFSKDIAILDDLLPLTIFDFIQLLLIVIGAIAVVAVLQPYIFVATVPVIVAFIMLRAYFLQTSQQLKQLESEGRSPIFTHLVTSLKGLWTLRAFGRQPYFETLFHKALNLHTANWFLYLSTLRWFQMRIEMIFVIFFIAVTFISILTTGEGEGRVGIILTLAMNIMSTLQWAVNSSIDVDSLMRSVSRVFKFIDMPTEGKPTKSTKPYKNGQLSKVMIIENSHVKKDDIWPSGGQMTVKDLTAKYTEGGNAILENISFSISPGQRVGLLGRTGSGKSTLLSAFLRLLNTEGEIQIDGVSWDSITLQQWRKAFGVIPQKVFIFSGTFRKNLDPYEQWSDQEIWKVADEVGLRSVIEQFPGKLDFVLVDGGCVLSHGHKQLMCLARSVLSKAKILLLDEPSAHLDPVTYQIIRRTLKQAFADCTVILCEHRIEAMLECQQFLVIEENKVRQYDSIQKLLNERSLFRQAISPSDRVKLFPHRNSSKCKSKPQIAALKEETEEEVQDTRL

C[C@@H]1CN(c2nc(-c3cccc(F)c3)ccc2C(=O)NS(=O)(=O)c2cccc(N)n2)C(C)(C)C1 [Compound 2566, N-[(6-amino-2-pyridyl)sulfonyl]-6-(3-fluorophenyl)-2-[(4S)-2,2,4-trimethylpyrrolidin-1-yl]pyridine-3-carboxamide]
EC30: < 3 µM

COc1ccc(-c2ccc(C(=O)NS(=O)(=O)c3ccc[nH]c3=O)c(N3C[C@@H](C)CC3(C)C)n2)c(F)c1F [Compound 2567, 6-(2,3-difluoro-4-methoxy-phenyl)-N-[(2-oxo-1H-pyridin-3-yl)sulfonyl]-2-[(4S)-2,2,4-trimethylpyrrolidin-1-yl]pyridine-3-carboxamide]
EC30: < 3 µM

C[C@@H]1CN(c2nc(C3=CCCN(C(=O)NC(C)(C)C)C3)ccc2C(=O)NS(=O)(=O)c2cccc(N)n2)C(C)(C)C1 [Compound 2568, N-[(6-amino-2-pyridyl)sulfonyl]-6-[1-(tert-butylcarbamoyl)-3,6-dihydro-2H-pyridin-5-yl]-2-[(4S)-2,2,4-trimethylpyrrolidin-1-yl]pyridine-3-carboxamide]
EC30: 3 to 10 µM

CC(=O)c1cccc(Oc2cccc(S(=O)(=O)NC(=O)c3cccnc3N3CC(C)CC3(C)C)n2)c1 (stereo not drawn) [Compound 2569, N—[[6-(3-acetylphenoxy)-2-pyridyl]sulfonyl]-2-(2,2,4-trimethylpyrrolidin-1-yl)pyridine-3-carboxamide]
EC30: < 3 µM

CCOc1cccc(-c2ccc(C(=O)NS(=O)(=O)N3CC[C@H](N)C3)c(N3C[C@@H](C)CC3(C)C)n2)c1 [Compound 2570, N-[(3S)-3-aminopyrrolidin-1-yl]sulfonyl-6-(3-ethoxyphenyl)-2-[(4S)-2,2,4-trimethylpyrrolidin-1-yl]pyridine-3-carboxamide]
EC30: 3 to 10 µM

COc1ccc(Nc2cccc(S(=O)(=O)NC(=O)c3cccnc3N3CC(C)CC3(C)C)n2)cc1Cl (stereo not drawn) [Compound 2571, N—[[6-(3-chloro-4-methoxy-anilino)-2-pyridyl]sulfonyl]-2-(2,24-trimethylpyrrolidin-1-yl)pyridine-3-carboxamide]
EC30: < 3 µM

Cc1cccc(Nc2cccc(S(=O)(=O)NC(=O)c3cccnc3N3CC(C)CC3(C)C)n2)c1 (stereo not drawn) [Compound 2572, N—[[6-(3-methylanilino)-2-pyridyl]sulfonyl]-2-(2,2,4-trimethylpyrrolidin-1-yl)pyridine-3-carboxamide]
EC30: < 3 µM

CC(C)COc1cc(F)cc(-c2ccc(C(=O)NS(=O)(=O)c3cccc(N)n3)c(N3CC(C(F)(F)F)CC3(C)C)n2)c1 (stereo not drawn) [Compound 2573]
EC30: < 3 µM

CC1CN(c2ncccc2C(=O)NS(=O)(=O)c2cccc(NC3CC3)n2)C(C)(C)C1 (stereo not drawn) [Compound 2574, N—[[6-(cyclopropylamino)-2-pyridyl]sulfonyl]-2-(2,2,4-trimethylpyrrolidin-1-yl)pyridine-3-carboxamide]
EC30: 3 to 10 µM

COc1cc(C)c(-c2ccc(C(=O)NS(=O)(=O)c3ccc[nH]c3=O)c(N3C[C@@H](C)CC3(C)C)n2)c(C)c1 [Compound 2575, 6-(4-methoxy-2,6-dimethyl-phenyl)-N-[(2-oxo-1H-pyridin-3-yl)sulfonyl]-2-[(4S)-2,2,4-trimethylpyrrolidin-1-yl]pyridine-3-carboxamide]
EC30: < 3 µM

CC[C@@H](C)Oc1ncc(-c2ccc(C(=O)NS(=O)(=O)c3cccc(N)n3)c(N3C[C@@H](C)CC3(C)C)n2)cc1C [Compound 2576, N-[(6-amino-2-pyridyl)sulfonyl]-6-[5-methyl-6-[(1R)-1-methylpropoxy]-3-pyridyl]-2-[(4S)-2,2,4-trimethylpyrrolidin-1-yl]pyridine-3-carboxamide]
EC30: < 3 µM

C[C@@H]1CN(c2nc(-n3ccc(OCC(C)(C)C)n3)ccc2C(=O)NS(=O)(=O)c2ccc[nH]c2=O)C(C)(C)C1 [Compound 2578, 6-[3-(2,2-dimethylpropoxy)pyrazol-1-yl]-N-[(2-oxo-1H-pyridin-3-yl)sulfonyl]-2-[(4S)-2,2,4-trimethylpyrrolidin-1-yl]pyridine-3-carboxamide]
EC30: < 3 µM

COc1ccc(CNc2cccc(S(=O)(=O)NC(=O)c3cccnc3N3CC(C)CC3(C)C)n2)cc1 (stereo not drawn) [Compound 2579, N—[[6-[(4-methoxyphenyl)methylamino]-2-pyridyl]sulfonyl]-2-(2,2,4-trimethylpyrrolidin-1-yl)pyridine-3-carboxamide]
EC30: < 3 µM

CC1CN(c2ncccc2C(=O)NS(=O)(=O)c2cccc(N3Cc4ccc(F)cc4C3)n2)C(C)(C)C1 (stereo not drawn) [Compound 2580, N—[[6-(5-fluoroisoindolin-2-yl)-2-pyridyl]sulfonyl]-2-(2,2,4-trimethylpyrrolidin-1-yl)pyridine-3-carboxamide]
EC30: < 3 µM

CC(C)COc1cc(F)cc(-c2ccc(C(=O)NS(=O)(=O)c3cccc(N)n3)c(N3CCC(C)CC3(C)C)n2)c1 (stereo not drawn) [Compound 2581, N-[(6-amino-2-pyridyl)sulfonyl]-6-(3-fluoro-5-isobutoxy-phenyl)-2-(2,2,4-trimethyl-1-piperidyl)pyridine-3-carboxamide]
EC30: < 3 µM

COCCOc1ncc(-c2ccc(C(=O)NS(=O)(=O)c3cccc(N)n3)c(N3C[C@@H](C)CC3(C)C)n2)cc1C [Compound 2582, N-[(6-amino-2-pyridyl)sulfonyl]-6-[6-(2-methoxyethoxy)-5-methyl-3-pyridyl]-2-[(4S)-2,2,4-trimethylpyrrolidin-1-yl]pyridine-3-carboxamide]
EC30: < 3 µM

C[C@@H]1CN(c2nc(-c3cccc4c3OCC4)ccc2C(=O)NS(=O)(=O)c2ccc[nH]c2=O)C(C)(C)C1 [Compound 2583, 6-(2,3-dihydrobenzofuran-7-yl)-N-[(2-oxo-1H-pyridin-3-yl)sulfonyl]-2-[(4S)-2,2,4-trimethylpyrrolidin-1-yl]pyridine-3-carboxamide]
EC30: 3 to 10 µM

CC1CN(c2ncc(-c3ccccc3C#N)cc2C(=O)NS(=O)(=O)c2cccc(N)n2)C(C)(C)C1 (stereo not drawn) [Compound 2584, N-[(6-amino-2-pyridyl)sulfonyl]-5-(2-cyanophenyl)-2-(2,2,4-trimethylpyrrolidin-1-yl)pyridine-3-carboxamide]
EC30: 3 to 10 µM

CC1CN(c2ncccc2C(=O)NS(=O)(=O)c2cccc(OCc3ccc(Cl)cc3)n2)C(C)(C)C1 (stereo not drawn) [Compound 2585, N—[[6-[(4-chlorophenyl)methoxy]-2-pyridyl]sulfonyl]-2-(2,2,4-trimethylpyrrolidin-1-yl)pyridine-3-carboxamide]
EC30: < 3 µM

C[C@@H]1CN(c2nc(N3CCOC(C)(C)C3)c(F)cc2C(=O)NS(=O)(=O)c2cccc(N)n2)C(C)(C)C1 [Compound 2586, N-[(6-amino-2-pyridyl)sulfonyl]-6-(2,2-dimethylmorpholin-4-yl)-5-fluoro-2-[(4S)-2,2,4-trimethylpyrrolidin-1-yl]pyridine-3-carboxamide]
EC30: 3 to 10 µM

Cc1ccc(-c2ccc(C(=O)NS(=O)(=O)N3CC[C@H](N)C3)c(N3C[C@@H](C)CC3(C)C)n2)cc1F [Compound 2587, N-[(3S)-3-aminopyrrolidin-1-yl]sulfonyl-6-(3-fluoro-4-methyl-phenyl)-2-[(4S)-2,2,4-trimethylpyrrolidin-1-yl]pyridine-3-carboxamide]
EC30: 3 to 10 µM

Cc1ccc(OCc2ccccc2)cc1-c1cnc(N2CC(C)CC2(C)C)c(C(=O)NS(=O)(=O)c2cccc(N)n2)c1 (stereo not drawn) [Compound 2588, N-[(6-amino-2-pyridyl)sulfonyl]-5-(5-benzyloxy-2-methyl-phenyl)-2-(2,2,4-trimethylpyrrolidin-1-yl)pyridine-3-carboxamide]
EC30: < 3 µM

CC(C)COc1cc(F)cc(-c2ccc(C(=O)NS(=O)(=O)c3cccc(N)n3)c(N3CC4(CCC4)CC3(C)C)n2)c1 [Compound 2589, N-[(6-amino-2-pyridyl)sulfonyl]-2-(6,6-dimethyl-7-azaspiro[3.4]octan-7-yl)-6-(3-fluoro-5-isobutoxy-phenyl)pyridine-3-carboxamide]
EC30: < 3 µM

C[C@@H]1CN(c2nc(-c3ccc(CO)cc3)ccc2C(=O)NS(=O)(=O)c2cccnc2N)C(C)(C)C1 [Compound 2590, N-[(2-amino-3-pyridyl)sulfonyl]-6-[4-(hydroxymethyl)phenyl]-2-[(4S)-2,2,4-trimethylpyrrolidin-1-yl]pyridine-3-carboxamide]
EC30: < 3 µM

CC1CN(c2ncccc2C(=O)NS(=O)(=O)c2cccc(Oc3cc(F)ccc3Cl)n2)C(C)(C)C1 (stereo not drawn) [Compound 2591, N—[[6-(2-chloro-5-fluoro-phenoxy)-2-pyridyl]sulfonyl]-2-(2,2,4-trimethylpyrrolidin-1-yl)pyridine-3-carboxamide]
EC30: < 3 µM

Cc1cccc(-c2ccc(C(=O)NS(=O)(=O)c3cccnc3N)c(N3C[C@@H](C)CC3(C)C)n2)c1O [Compound 2592, N-[(2-amino-3-pyridyl)sulfonyl]-6-(2-hydroxy-3-methyl-phenyl)-2-[(4S)-2,2,4-trimethylpyrrolidin-1-yl]pyridine-3-carboxamide]
EC30: < 3 µM

C[C@@H]1CN(c2nc(-c3cccc(C(F)(F)F)c3)ccc2C(=O)NS(=O)(=O)c2cccnc2N)C(C)(C)C1 [Compound 2593, N-[(2-amino-3-pyridyl)sulfonyl]-6-[3-(trifluoromethyl)phenyl]-2-[(4S)-2,2,4-trimethylpyrrolidin-1-yl]pyridine-3-carboxamide]
EC30: < 3 µM

CC1CN(c2ncccc2C(=O)NS(=O)(=O)c2cccc(OCC3COc4ccccc4C3)n2)C(C)(C)C1 (stereo not drawn) [Compound 2595, N—[[6-(chroman-3-ylmethoxy)-2-pyridyl]sulfonyl]-2-(2,2,4-trimethylpyrrolidin-1-yl)pyridine-3-carboxamide]
EC30: < 3 µM

C[C@@H]1CN(c2nc(C(C)(C)C)c(C3=CCN(C(=O)CC4CCCCC4)CC3)cc2C(=O)NS(=O)(=O)c2cccc(N)n2)C(C)(C)C1 [Compound 2596, N-[(6-amino-2-pyridyl)sulfonyl]-6-tert-butyl-5-[1-(2-cyclohexylacetyl)-3,6-dihydro-2H-pyridin-4-yl]-2-[(4S)-2,2,4-trimethylpyrrolidin-1-yl]pyridine-3-carboxamide]
EC30: < 3 µM

CC1CN(c2ncccc2C(=O)NS(=O)(=O)c2cccc(NCc3ccco3)n2)C(C)(C)C1 (stereo not drawn) [Compound 2597, N—[[6-(2-furylmethylamino)-2-pyridyl]sulfonyl]-2-(2,2,4-trimethylpyrrolidin-1-yl)pyridine-3-carboxamide]
EC30: 3 to 10 µM
